Experimental data as given in patent US4816448A, “Thermal isomer of difficidin and thermal isomer of oxydifficidin antibacterials” (Merck & Co., Inc., priority 1987, dated 1989).

What was measured:
[1] = Isomerization of difficidin at 60° C., HPLC (Example IV); type: physicochemical; conditions: tetrahydrofuran
Experimental: Difficidin is stored as the potassium salt at pH7 in aqueous methanol solution at -80° C. A 0.67 ml aliquot containing 400 mcg of difficidin was evaporated to an oil and taken up in 0.2 ml of tetrahydrofuran. The sample was heated at 60° C. for 3 days.

[2] = Thermal isomerization of difficidin and oxydifficidin, equilibrium; type: physicochemical; conditions: for time to reach equilibrium with its thermal isomer / converted to thermal isomer at equilibrium: 60° C.; for converted to thermal isomer at equilibrium: suitable solvent such as water, alcohol or ethyl acetate
Experimental: Alternatively, the thermal isomers of the subject invention can be prepared by converting difficidin and oxydifficidin to the thermal isomer of difficidin and thermal isomer of oxydifficidin, respectively. Difficidin and oxydifficidin can be prepared and purified as described in U.S. Pat. No. 4,545,991. The thermal isomers can be prepared by thermally heating (to about 60° C.) the difficidin and oxydifficidin in a suitable solvent system such as water, alcohol or ethyl acetate. At 60° C., it takes about 24 hours for difficidin and oxydifficidin to reach equilibrium with its thermal isomer. At equilibrium, about 25% of the difficidin has converted to the thermal isomer and about 66% of the oxydifficidin has converted to its thermal isomer. […] The thermal isomer can then be separated from the equilibrium mixture by standard chromatographic techniques.

[3] = tested on: S. aureus; assay: MIC, standard in vitro assay (Table I); type: cell-based, Staphylococcus aureus; conditions: in most cases
Source text: (§1) Using standard in vitro assay techniques, minimal inhibitory concentrations (MIC) have been determined for the thermal isomer of difficidin and the thermal isomer of oxydifficidin against a number of bacteria.

[4] = tested on: Serratia marcescens; assay: MIC, standard in vitro assay (Table I); type: cell-based; conditions: in most cases
Source text: as §1

[5] = tested on: Salmonella typhimurium; assay: MIC, standard in vitro assay (Table I); type: cell-based; conditions: in most cases
Source text: as §1

[6] = tested on: anaerobic bacteria; assay: Antibacterial activity against anaerobic bacteria; type: cell-based
[7] = tested on: P. aeruginosa; assay: MIC, standard in vitro assay (Table I); type: cell-based, Pseudomonas aeruginosa; conditions: Ps. aeruginosa; in most cases
Source text: as §1

[8] = tested on: Proteus; assay: Antibacterial activity, relative potency; type: cell-based; conditions: in most cases
Source text: as §1

[9] = tested on: aerobic microorganisms; assay: Antibacterial activity against aerobic microorganisms; type: cell-based; conditions: aerobic microorganisms such as Pseudomonas aeruginosa and Staphylococcus aureus
Source text: as §1

[10] = Isomerization of oxydifficidin at 60° C., HPLC (Example V); type: physicochemical; conditions: under argon, tetrahydrofuran
Experimental: Pure oxydifficidin was stored as the potassium salt, pH7, in aqueous methanol solution at -80° C. A 28 ml aliquot, containing 95 mg of antibiotic, was treated with 2 mg. of 2,6-di-t-butyl-phenol and evaporated to 3-4 ml. The concentrate was diluted with tetrahydrofuran to a final volume of 44 ml. The solution was heated under argon at 60° C.

difficidin
Composition ([1]; 0 days): 98% | Composition ([1]; 3 days): 76% | time to reach equilibrium with its thermal isomer [2]: about 24 hours | converted to thermal isomer at equilibrium [2]: about 25% | isomerization at room temperature [2]: some isomerization takes place

C=C/C=C(\C)CCC1C/C=C\C=C(\C)C(OP(=O)(O)O)CC/C=C/C=C\C=C/CCC(C)C(=C)CC(=O)O1 (stereo not drawn) [thermal isomer of difficidin, (Z,Z,E,Z,Z,)-16-dihydroxyphosphinoxy-5,7-dimethyl-4-methylene-22-((E)-3-methyl-3,5-hexadienyl)oxacyclo-docosa-8,10,12,17,19-pentaen-2-one]
effectiveness relative to thermal isomer of oxydifficidin [3]: four times more effective | Composition ([1]; 0 days): 2% | Composition ([1]; 3 days): 24% | effectiveness relative to thermal isomer of oxydifficidin [4]: four times more effective | effectiveness relative to thermal isomer of oxydifficidin [5]: four times more effective | activity against anaerobic bacteria [6]: active against a wide spectrum of anaerobic bacteria | effectiveness relative to thermal isomer of oxydifficidin [7]: four times more effective | effectiveness relative to thermal isomer of oxydifficidin [8]: four times more effective | potency against aerobic microorganisms vs thermal isomer of oxydifficidin [9]: more potent than the thermal isomer of oxydifficidin

oxydifficidin [reference compound]
Composition ([10]; 17 hrs., HPLC): 39% | Composition ([10]; 24 hrs., HPLC): 36% | Composition ([10]; 41 hrs., HPLC): 34% | Composition ([10]; time 0, HPLC): 98% | time to reach equilibrium with its thermal isomer [2]: about 24 hours | converted to thermal isomer at equilibrium [2]: about 66% | isomerization at room temperature [2]: some isomerization takes place
